{
  "source": "ChEMBL document CHEMBL1914342",
  "about": "“Synthesis and in vitro EGFR (ErbB1) tyrosine kinase inhibitory activity of 4-N-substituted 6-aryl-7H-pyrrolo[2,3-d]pyrimidine-4-amines” (Eur J Med Chem, 2011)",
  "note": "Calls of active or inactive are those of the source. No cut-off for these calls is given here.",
  "data": [
    {"target": "T1, Epidermal growth factor receptor (Homo sapiens, UniProt P00533)", "T1 sequence (P00533 whole entry)": "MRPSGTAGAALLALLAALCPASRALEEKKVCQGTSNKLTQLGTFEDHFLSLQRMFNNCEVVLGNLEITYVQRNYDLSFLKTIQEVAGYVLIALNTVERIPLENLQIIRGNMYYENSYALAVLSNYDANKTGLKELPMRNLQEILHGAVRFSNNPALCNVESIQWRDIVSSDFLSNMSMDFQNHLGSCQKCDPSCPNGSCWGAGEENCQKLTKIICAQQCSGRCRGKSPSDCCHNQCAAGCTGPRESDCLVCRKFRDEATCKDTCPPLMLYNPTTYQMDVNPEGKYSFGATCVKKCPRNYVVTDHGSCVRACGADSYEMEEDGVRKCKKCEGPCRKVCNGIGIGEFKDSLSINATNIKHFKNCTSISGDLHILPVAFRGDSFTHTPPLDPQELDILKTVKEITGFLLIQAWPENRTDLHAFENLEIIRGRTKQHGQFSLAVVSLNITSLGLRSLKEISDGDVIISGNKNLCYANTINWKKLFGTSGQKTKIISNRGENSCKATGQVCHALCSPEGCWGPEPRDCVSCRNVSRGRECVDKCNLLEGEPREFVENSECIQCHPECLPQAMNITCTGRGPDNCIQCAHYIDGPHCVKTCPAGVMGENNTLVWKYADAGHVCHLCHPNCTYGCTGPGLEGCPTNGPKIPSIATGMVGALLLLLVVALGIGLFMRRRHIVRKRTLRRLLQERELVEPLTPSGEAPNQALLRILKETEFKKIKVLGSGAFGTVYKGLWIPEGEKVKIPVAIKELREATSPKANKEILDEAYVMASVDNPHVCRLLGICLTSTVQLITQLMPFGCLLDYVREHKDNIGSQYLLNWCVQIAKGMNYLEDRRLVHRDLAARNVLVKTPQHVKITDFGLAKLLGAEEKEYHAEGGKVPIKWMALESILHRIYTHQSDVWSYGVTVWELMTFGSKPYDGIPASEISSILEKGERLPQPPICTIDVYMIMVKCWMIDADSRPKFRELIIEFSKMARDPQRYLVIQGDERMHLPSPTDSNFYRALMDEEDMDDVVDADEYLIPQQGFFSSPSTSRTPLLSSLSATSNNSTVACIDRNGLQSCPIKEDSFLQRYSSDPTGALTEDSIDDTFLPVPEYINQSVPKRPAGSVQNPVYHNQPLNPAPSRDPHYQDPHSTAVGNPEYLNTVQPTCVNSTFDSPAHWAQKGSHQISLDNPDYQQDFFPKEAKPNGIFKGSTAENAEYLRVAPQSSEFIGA", "test": "Inhibition of EGFR by Z-LYTE assay", "units": {"IC50": "µM"}, "values": [
      {"smiles": "CC(Nc1ncnc2[nH]c(-c3ccc(O)cc3)cc12)c1cccc2ccccc12", "note": "(racemic)", "IC50": 1.01},
      {"smiles": "C[C@@H](Nc1nc[nH]c2nc(-c3ccccc3)cc1-2)c1ccccc1", "IC50": 0.0033},
      {"smiles": "Cc1cccc(C(C)Nc2ncnc3[nH]c(-c4ccc(O)cc4)cc23)c1", "note": "(racemic)", "IC50": 0.095},
      {"smiles": "C[C@@H](Nc1ncnc2[nH]c(-c3ccc(O)cc3)cc12)c1cccc(F)c1", "IC50": 0.009},
      {"smiles": "C[C@@H](Nc1ncnc2[nH]c(-c3ccc(O)cc3)cc12)c1ccccc1F", "IC50": 0.008},
      {"smiles": "COc1ccc(-c2cc3c(N[C@H](C)c4ccccc4)ncnc3[nH]2)cc1", "IC50": 0.0047},
      {"smiles": "CC[C@@H](Nc1ncnc2[nH]c(-c3ccc(O)cc3)cc12)c1ccccc1", "IC50": 0.004},
      {"smiles": "C[C@@H](Nc1ncnc2[nH]c(-c3ccc(C#N)cc3)cc12)c1ccccc1", "IC50": 0.012},
      {"smiles": "C[C@@H](Nc1ncnc2[nH]c(-c3ccc(Br)cc3)cc12)c1ccc(F)cc1", "IC50": 0.029},
      {"smiles": "C[C@@H](Nc1ncnc2[nH]c(-c3ccc(F)cc3)cc12)c1ccc(F)cc1", "IC50": 0.027},
      {"smiles": "Cc1ccc([C@@H](C)Nc2ncnc3[nH]c(-c4ccc(O)cc4)cc23)cc1", "IC50": 0.45},
      {"smiles": "Oc1ccc(-c2cc3c(NCc4cccc(F)c4)ncnc3[nH]2)cc1", "IC50": 0.052},
      {"smiles": "C[C@@H](Nc1ncnc2[nH]c(-c3ccc(O)cc3)cc12)c1ccccc1", "IC50": 0.0037},
      {"smiles": "C[C@@H](Nc1ncnc2[nH]c(-c3ccc(O)cc3)cc12)c1ccc(Br)cc1", "IC50": 0.062},
      {"smiles": "Oc1ccc(-c2cc3c(NCc4ccccc4)ncnc3[nH]2)cc1", "IC50": 0.0033},
      {"smiles": "C[C@@H](Nc1ncnc2[nH]c(-c3ccc(Br)cc3)cc12)c1ccccc1", "IC50": 0.063},
      {"smiles": "CC(Nc1ncnc2[nH]c(-c3ccc(O)cc3)cc12)c1ccc(C(F)(F)F)cc1", "note": "(racemic)", "IC50": 4.61},
      {"smiles": "Oc1ccc(-c2cc3c(NCc4ccccc4F)ncnc3[nH]2)cc1", "IC50": 0.045},
      {"smiles": "C[C@@H](Nc1ncnc2[nH]c(-c3ccc(F)cc3)cc12)c1ccccc1", "IC50": 0.0066},
      {"smiles": "C[C@@H](Nc1ncnc2[nH]c(-c3ccccc3)cc12)c1ccc(F)cc1", "IC50": 0.033},
      {"smiles": "Cc1ccccc1C(C)Nc1ncnc2[nH]c(-c3ccc(O)cc3)cc12", "note": "(racemic)", "IC50": 0.017},
      {"smiles": "Oc1ccc(-c2cc3c(NCc4ccc(F)cc4)ncnc3[nH]2)cc1", "IC50": 0.026},
      {"smiles": "C[C@@H](Nc1ncnc2[nH]c(-c3ccc(O)cc3)cc12)c1ccc(F)cc1", "IC50": 0.0038},
      {"smiles": "C[C@@H](Nc1ncnc2[nH]c(-c3ccc(C#N)cc3)cc12)c1ccc(F)cc1", "IC50": 0.014}
    ]},
    {"target": "T1, Epidermal growth factor receptor", "test": "Inhibition of EGF-induced EGFR internalization in human HeLa cells assessed as subcellular localization of receptor at 500 nM measured after 15 to 20 mins post receptor activation by immunostaining-based confocal microscopy analysis", "assay_type": "cell-based", "values": [
      {"smiles": "C[C@@H](Nc1ncnc2[nH]c(-c3ccc(O)cc3)cc12)c1ccccc1", "inhibition": "inactive"}
    ]}
  ]
}
